Where a SMILES comes first, the peptide text is derived from it. The star is where a group is joined. Cbz = O=C(OCc1ccccc1)*
What was measured:
C4-2 cells = experiment: Cell proliferation assay (MTS) and trypan blue assay, C4-2 cells; format: cell-based, human; details: SPOP-F133V C4-2 cells, GDC-0068 0.2 μM with JQ1 0.25 μM, 5 days
Experimental: CellTiter 96® AQueous One Solution Cell Proliferation Assay (MTS) (Promega) was used to measure cell growth according to the manufacturer's instructions. Briefly, cells were plated in 96-well plates at a density of 2,000 cells per well. At the indicated times, 20 μL of Cell Titer 96R Aqueous One Solution Reagent was added to medium. After incubating for 1 hour at 37° C. in the cell incubator, cell growth was measured in a microplate reader at 490 nm.
Trypan blue assay was performed to measure cell growth according to the manufacturer's instructions. Briefly, cells were plated in 6-well plates at a density of about 5×10^4 to about 1×10^5 cells per well. At the indicated time points, cells were trypsinized and suspended in 1 mL 1×PBS. 100 μL cells and 100 μL trypan blue solution (Sigma-Aldrich) were mixed, and the number of viable cells was measured using the Bio-Rad automated cell counter.

C4-2 xenograft tumors = experiment: Prostate cancer xenografts in mice, tumor volume; format: in vivo; details: SPOP-F133V C4-2 xenografts, GDC-0068 100 mg/kg with JQ1 50 mg/kg, 5 days a week, day 21
Experimental: 6-week-old NOD-SCID IL-2-receptor gamma null (NSG) mice were generated and randomly divided into different experimental groups as indicated. All mice were housed in standard conditions with a 12-hour light/dark cycle and access to food and water ad libitum. For BRD2/3/4 knockdown studies, C4-2 cells (5×10^6), infected with lentivirus expressing empty vector (EV) or HA-SPOP-F133V mutant in combination with control shRNA or BRD2/3/4-specific shRNA, were mixed with Matrigel (in 100 μL 1×PBS plus 100 μL Matrigel (BD Biosciences)) and injected s.c. into the right flank of mice. […] Growth in tumor volume was measured in a blinded fashion using digital caliper, and tumor volumes were estimated using the formula (L×W2)/2, where L is length of tumor and W is width. The volumes of tumors were compared, and P values were determined by a two-tailed Student's t test. Upon the completion of treatment, tumor grafts were harvested. Tumor tissues were divided, and a portion was subjected to FFPE. the rest was frozen for protein and RNA extraction.

AKT-mTORC1 pathway = experiment: Western blot of AKT and S6K phosphorylation in C4-2 cells; format: cell-based, human; details: SPOP-F133V C4-2 cells, GDC-0068 1 μM, 24 hours
Experimental: (§1) Cell lysates or immunoprecipitates were subjected to SDS-PAGE, and proteins were transferred to nitrocellulose membranes (GE Healthcare Sciences). The membranes were blocked in Tris-buffered saline (TBS, pH 7.4) containing 5% non-fat milk and 0.1% Tween-20, washed twice in TBS containing 0.1% Tween-20, and incubated with primary antibody overnight at 4° C., followed by secondary antibody for 1 hour at room temperature. The proteins of interest were visualized using ECL chemiluminescence system (Santa Cruz Biotechnology). Densitometry analysis of protein bands was analyzed on the Gel-Pro Analyzer software.

solid tumors = details: patients with solid tumors (Saura et al. 2017); cited from earlier work
BRD2/3/4 = experiment: Western blot and RT-qPCR of BRD2/3/4 in inhibitor-treated LNCaP cells; format: cell-based, human; details: 8 hours, Bortezomib 200 nM, MG132 20 μM; for BRD2/3/4 protein level: MLN4924 200 nM
Experimental: as §1
Total RNA was isolated from transiently transfected cells using the Trizol reagent (Thermo Fisher Scientific), and cDNA was reverse-transcribed using the Superscript RT kit (TOYOBO, Japan) according to the manufacturer's instructions. PCR amplification was performed using the SYBR Green PCR master mix Kit (TOYOBO, Japan). All quantization was normalized to the level of endogenous control GAPDH. The primer sequences for the SYBR green qPCR used were as follows: BRD2-F: 5′-[…]-3′ (SEQ ID NO:10); BRD2-R: 5′-[…]-3′ (SEQ ID NO:11); BRD3-F: 5′-[…]-3′ (SEQ ID NO:12); BRD3-R: 5′-[…]-[…]-3′ (SEQ ID NO:13); BRD4-F: 5′-[…]-GAG-3′ (SEQ ID NO:14); BRD4-F: 5′-[…]-3′ (SEQ ID NO:15); RAC1-F: 5′-[…]-3′ (SEQ ID NO:16); RAC1-R: 5′-[…]-3′ (SEQ ID NO:17); FDFT1-F: 5′-ACTAT-[…]-3′ (SEQ ID NO:18); FDFT1-R: 5′-[…]-[…]-3′ (SEQ ID NO:19); DHCR24-F: 5′-[…]-GAGC-3′ (SEQ ID NO:20); DHCR24-R: 5′-[…]-3′ (SEQ ID NO:21); DHCR7-F: 5′-[…]-3′ (SEQ ID NO:22); DHCR7-R: 5′-[…]-3′ (SEQ ID NO:23); MVD-F: 5′-[…]-3′ (SEQ ID NO:24); MVD-R: 5′-CACAC-[…]-3′ (SEQ ID NO:25); PSA-F: 5′-[…]-[…]-3′ (SEQ ID NO:26); PSA-R: 5′-[…]-3′ (SEQ ID NO:27); TMPRSS2-F: 5′-[…]-3′ (SEQ ID NO:28); TMPRSS2-R: 5′-[…]-3′ (SEQ ID NO:29); MYC-F: 5′-[…]-3′ (SEQ ID NO:30); MYC-R: 5′-CTTGT-[…]-3′ (SEQ ID NO:31); AR-F: 5′-[…]-TCACC-3′ (SEQ ID NO:32); AR-R: 5′-[…]-3′ (SEQ ID NO:33); GAPDH-F: 5′-[…]-3′ (SEQ ID NO:34); and GAPDH-R: 5′-[…]-3′ (SEQ ID NO:35).

BRD2/3/4 proteins = experiment: Western blot of 293T cells transfected with SPOP and BRD2/3/4, with or without MG132; format: cell-based, human; details: 20 μM MG132 for 8 hours
Experimental: as §1

SMILES | SPOP mutation-conferred resistance to BET inhibitor, cells in culture (C4-2 cells) | SPOP mutation-conferred resistance to BET inhibitor, tumors in mice (C4-2 xenograft tumors) | SPOP mutation-induced activation of AKT downstream pathways (AKT-mTORC1 pathway) | Antitumor efficacy in patients (solid tumors) | BRD2/3/4 protein level (BRD2/3/4) | BRD2/3/4 mRNA expression (BRD2/3/4) | Effect on the decrease of BRD2/3/4 proteins caused by wild-type SPOP (BRD2/3/4 proteins)
CC(C)NC[C@@H](C(=O)N1CCN(c2ncnc3c2[C@H](C)C[C@H]3O)CC1)c1ccc(Cl)cc1 [GDC-0068] | completely overcame | completely overcame | abolished | effective antitumor efficacy | – | – | –
NS(=O)(=O)OC[C@@H]1C[C@@H](n2ccc3c(N[C@H]4CCc5ccccc54)ncnc32)C[C@@H]1O [MLN4924] | – | – | – | – | caused accumulation of BRD2/3/4 at protein level | – | –
CC(C)C[C@@H](C=O)NC(=O)[C@H](CC(C)C)NC(=O)[C@H](CC(C)C)NC(=O)OCc1ccccc1 [MG132] (Cbz-Leu-Leu-Leu-aldehyde) | – | – | – | – | increased BRD2/3/4 protein | not mRNA expression | completely reversed
CC(C)C[C@H](NC(=O)[C@H](Cc1ccccc1)NC(=O)c1cnccn1)B(O)O [Bortezomib] | – | – | – | – | increased BRD2/3/4 protein | not mRNA expression | –

Source: US11712439B2, “Methods and materials for identifying and treating bet inhibitor-resistant cancers” (Mayo Foundation for Medical Education and Research, priority 2017, dated 2023)
